Reference: patent US20240368122A1, “JAK2 INHIBITORS AND METHODS OF USE THEREOF” (RELAY THERAPEUTICS, INC., priority 2021, published 2024)

Tests used:
[1] = target: T1, JAK2 JH2 WT (V536-D812) [W659A, W777A, F794H solubilizing mutations] (Homo sapiens, UniProt O60674, F794H/W659A/W777A); experiment: Surface Plasmon Resonance (SPR) binding assay, JAK2 JH2 domain
T1 construct: **JAK2 JH2 WT (V536-D812) [W659A, W777A, F794H solubilizing mutations]; C-thrombin-avi-His6; thrombin cleavage site (C); His6 (C); purchased Biortus
T1 sequence (O60674 536-812 W659A/W777A/F794H): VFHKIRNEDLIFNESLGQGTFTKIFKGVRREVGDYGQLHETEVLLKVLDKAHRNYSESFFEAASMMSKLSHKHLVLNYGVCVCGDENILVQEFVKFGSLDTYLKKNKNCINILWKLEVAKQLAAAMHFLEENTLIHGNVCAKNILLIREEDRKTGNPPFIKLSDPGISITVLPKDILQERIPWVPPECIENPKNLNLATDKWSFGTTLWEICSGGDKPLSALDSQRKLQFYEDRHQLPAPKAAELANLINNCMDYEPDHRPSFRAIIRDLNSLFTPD
Summary of the method: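 Kinetics came from 1:1 fits of single-cycle runs at 20 °C: four 3-fold dilutions from 5 uM for JH1 or 500 nM for JH2, 60 s association, and 300 s or 1200 s dissociation respectively. Protein was freshly captured per compound in the presence of 10 uM stabilizer compound, with running buffer of pH 7.5 HEPES/NaCl/glycerol/DTT plus 2% DMSO.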

[2] = test system: TF1 JAK2 V617F STAT3 reporter; experiment: Cellular TF1 STAT3 assay (luciferase reporter), JAK2 V617F; format: cell-based; settings: Homo sapiens, TF-1, TF1 cells, JAK2 V617F, read-out: Cell PD-TF1 JAK2 V617F STAT3 (IC50)
Summary of the method: (§1)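 Measured in TF1 cells with mutant JAK2 V617F and STAT-responsive luciferase: 18-20 h compound exposure at 37 °C, then ONE-glo luminescence.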

[3] = test system: TF1 JAK2 V617F STAT5 reporter; experiment: Cellular TF1 STAT5 assay (luciferase reporter), JAK2 V617F; format: cell-based; settings: Homo sapiens, TF-1, TF1 cells, JAK2 V617F, read-out: Cell PD TF1 V617F STAT5 (IC50)
Summary of the method: as §1

| Kd [1] [nM] | IC50 [2] [nM] | IC50 [3] [nM] | SMILES |
| --- | --- | --- | --- |
| 0.01 to 10 | 50 to 500 | 50 to 500 | CNC(=O)c1nnc(NC(=O)C2CC2)cc1Nc1cccc(-c2cnn(C3CN(Cc4cccc(C5(C#N)CCC5)n4)C3)c2)c1OC [Compound 290] |
| 10 to 50 | 5000 to 100000 | 500 to 5000 | CNC(=O)c1nnc(NC(=O)C2CC2)cc1Nc1cccc(-c2ccc(C3CN(Cc4cnccc4C(F)F)C3)nc2)c1OC [Compound 291] |
| 50 to 500 | 500 to 5000 | 5000 to 100000 | CNC(=O)c1nnc(NC(=O)C2CC2)cc1Nc1cccc(-c2ccc(C3CN(Cc4cn(C)nc4C#N)C3)nc2)c1OC [Compound 293] |
| 0.01 to 10 | 50 to 500 | 50 to 500 | CNC(=O)c1nnc(NC(=O)C2CC2)cc1Nc1cccc(-c2cnn(C3CN(Cc4cc([N+](=O)[O-])ccn4)C3)c2)c1OC [Compound 295] |
| 0.01 to 10 | 500 to 5000 | 500 to 5000 | CNC(=O)c1nnc(NC(=O)C2CC2)cc1Nc1cccc(-c2ccc(C(=O)N(C)Cc3cnn(C(F)F)c3C)nc2)c1OC [Compound 298] |
| 0.01 to 10 | 500 to 5000 | 500 to 5000 | CNC(=O)c1nnc(NC(=O)C2CC2)cc1Nc1cccc(-c2cnc(C3CN(Cc4cccc(C#N)n4)C3)nc2)c1OC [Compound 305] |
| 0.01 to 10 | 50 to 500 | 50 to 500 | CNC(=O)c1nnc(NC(=O)C2CC2)cc1Nc1cccc(-c2cnn(C3CN(Cc4cccc(C(C)O)n4)C3)c2)c1OC (stereo not drawn) [Compound 306] |
| 0.01 to 10 | 500 to 5000 | 500 to 5000 | CNC(=O)c1nnc(NC(=O)C2CC2)cc1Nc1cccc(-c2cnn([C@@H]3CN(Cc4cccc(C#N)n4)[C@H]3C)c2)c1OC [Compound 310] |
| 0.01 to 10 | 500 to 5000 | 50 to 500 | CNC(=O)c1nnc(NC(=O)C2CC2)cc1Nc1ccc(C)c(-c2cnc(C(=O)N(C)Cc3ncc(COC)s3)c(F)c2)c1OC [Compound 314] |
| 10 to 50 | 5000 to 100000 | 5000 to 100000 | CNC(=O)c1nnc(NC(=O)C2CC2)cc1Nc1ccc(C)c(-c2ccc(C3CN(Cc4cc(C#N)ccn4)C3)nc2)c1OC [Compound 321] |
| 10 to 50 | 5000 to 100000 | 5000 to 100000 | CNC(=O)c1nnc(NC(=O)C2CC2)cc1Nc1ccc(C)c(-c2ccc(C3CN(Cc4ccccn4)C3)nc2)c1OC [Compound 322] |
| 0.01 to 10 | 50 to 500 | 50 to 500 | CNC(=O)c1nnc(NC(=O)C2CC2)cc1Nc1cccc(-c2cnn(C3CN(Cc4cccc(C=O)n4)C3)c2)c1OC [Compound 324] |
| 0.01 to 10 | 5000 to 100000 | 5000 to 100000 | CNC(=O)c1nnc(NC(=O)C2CC2)cc1Nc1cccc(-c2cnc(C3CN(Cc4ccccn4)C3)nc2)c1OC [Compound 325] |
| 10 to 50 | 5000 to 100000 | 5000 to 100000 | CNC(=O)c1nnc(NC(=O)C2CC2)cc1Nc1cccc(-c2cnc(C3CN(Cc4cccn(C)c4=O)C3)nc2)c1OC [Compound 326] |
| 0.01 to 10 | 5000 to 100000 | 5000 to 100000 | CNC(=O)c1nnc(NC(=O)C2CC2)cc1Nc1cccc(-c2cnc(C3CN(Cc4cccc5ncnn45)C3)nc2)c1OC [Compound 327] |

The next lines start with the compound.

| SMILES | Kd [1] [nM] | IC50 [2] [nM] | IC50 [3] [nM] |
| --- | --- | --- | --- |
| CNC(=O)c1nnc(NC(=O)C2CC2)cc1Nc1ccc(C)c(-c2cnc(C(=O)N(C)Cc3cc(C(F)F)ccn3)c(F)c2)c1OC [Compound 289] | 0.01 to 10 | 50 to 500 | 50 to 500 |
| CNC(=O)c1nnc(NC(=O)C2CC2)cc1Nc1cccc(-c2cnn(C3CN(Cc4cccc(C5(C#N)CC5)n4)C3)c2)c1OC [Compound 292] | 0.01 to 10 | 50 to 500 | 50 to 500 |
| CNC(=O)c1nnc(NC(=O)C2CC2)cc1Nc1cccc(-c2cnn(C3CN(Cc4cccc([N+](=O)[O-])n4)C3)c2)c1OC [Compound 294] | 0.01 to 10 | 50 to 500 | 50 to 500 |
| CNC(=O)c1nnc(NC(=O)C2CC2)cc1Nc1ccc(C)c(-c2ccc(C(=O)N(C)Cc3cc(C(F)F)ccn3)nc2)c1OC [Compound 296] | 0.01 to 10 | 50 to 500 | 50 to 500 |
| CNC(=O)c1nnc(NC(=O)C2CC2)cc1Nc1cccc(-c2ccc(C(=O)N(C)Cc3cn(C(F)F)nc3C)nc2)c1OC [Compound 297] | 0.01 to 10 | 50 to 500 | 50 to 500 |
| CNC(=O)c1nnc(NC(=O)C2CC2)cc1Nc1cccc(-c2cnn(C3CN(Cc4ncccc4C(=O)N(C)C)C3)c2)c1OC [Compound 299] | 0.01 to 10 | 500 to 5000 | 500 to 5000 |
| CNC(=O)c1nnc(NC(=O)C2CC2)cc1Nc1cccc(-c2cnn(C3CN(Cc4cccc(C(C)(C)CO)n4)C3)c2)c1OC [Compound 300] | 0.01 to 10 | 50 to 500 | 50 to 500 |
| CNC(=O)c1nnc(NC(=O)C2CC2)cc1Nc1cccc(-c2cnn(C3CN(Cc4ncccc4C(F)(F)F)C3)c2)c1OC [Compound 302] | 0.01 to 10 | 500 to 5000 | 500 to 5000 |
| CNC(=O)c1nnc(NC(=O)C2CC2)cc1Nc1cccc(-c2cnn(C3CN(Cc4cccn5nccc45)C3)c2)c1OC [Compound 303] | 0.01 to 10 | 50 to 500 | 50 to 500 |
| CNC(=O)c1nnc(NC(=O)C2CC2)cc1Nc1cccc(-c2cnn(C3CN(Cc4cccc(S(C)(=O)=O)n4)C3)c2)c1OC [Compound 304] | 0.01 to 10 | 50 to 500 | 50 to 500 |
| CNC(=O)c1nnc(NC(=O)C2CC2)cc1Nc1cccc(-c2cnn(C3CN(Cc4cccc(C(C)=O)n4)C3)c2)c1OC [Compound 307] | 0.01 to 10 | 50 to 500 | 50 to 500 |
| CNC(=O)c1nnc(NC(=O)C2CC2)cc1Nc1cccc(-c2cnn(C3CN(Cc4cccc(C(O)C(C)C)n4)C3)c2)c1OC (stereo not drawn) [Compound 308] | 10 to 50 | 50 to 500 | 50 to 500 |
| CNC(=O)c1nnc(NC(=O)C2CC2)cc1Nc1cccc(-c2cnn(C3CN(Cc4cccc(C(=O)C(C)C)n4)C3)c2)c1OC [Compound 309] | 0.01 to 10 | 500 to 5000 | 50 to 500 |
| CNC(=O)c1nnc(NC(=O)C2CC2)cc1Nc1cccc(-c2cnn(C3CN(Cc4cccc(C(=O)N5CC(F)(F)C5)n4)C3)c2)c1OC [Compound 311] | 0.01 to 10 | 50 to 500 | 50 to 500 |
| CNC(=O)c1nnc(NC(=O)C2CC2)cc1Nc1cccc(-c2cnn(C3CN(Cc4cccc(C(=O)O)n4)C3)c2)c1OC [Compound 312] | 0.01 to 10 | 5000 to 100000 | 5000 to 100000 |
| CNC(=O)c1nnc(NC(=O)C2CC2)cc1Nc1cccc(-c2cnn(C3CN(Cc4cccc5nncn45)C3)c2)c1OC [Compound 313] | 10 to 50 | 500 to 5000 | 500 to 5000 |
| CNC(=O)c1nnc(NC(=O)C2CC2)cc1Nc1cccc(-c2ccc(C(=O)N(C)Cc3ncc(COC)s3)cc2)c1OC [Compound 316] | 0.01 to 10 | 500 to 5000 | 500 to 5000 |
| CNC(=O)c1nnc(NC(=O)C2CC2)cc1Nc1ccc(C)c(-c2ccc(C(=O)N(C)Cc3ncc(COC)s3)nc2)c1OC [Compound 317] | 0.01 to 10 | 500 to 5000 | 50 to 500 |
| CNC(=O)c1nnc(NC(=O)C2CC2)cc1Nc1cccc(-c2cnn([C@H]3CCN(Cc4cccc(C#N)n4)C3)c2)c1OC [Compound 319] | 0.01 to 10 | 50 to 500 | 50 to 500 |
| CNC(=O)c1nnc(NC(=O)C2CC2)cc1Nc1ccc(C)c(-c2ccc(C3CN(Cc4cccc(C#N)n4)C3)nc2)c1OC [Compound 320] | 0.01 to 10 | 500 to 5000 | 500 to 5000 |
| CNC(=O)c1nnc(NC(=O)C2CC2)cc1Nc1cccc(-c2ccc(C3CN(Cc4cc(S(C)(=O)=O)ccn4)C3)nc2)c1OC [Compound 330] | 0.01 to 10 | 500 to 5000 | 500 to 5000 |
| CNC(=O)c1nnc(NC(=O)C2CC2)cc1Nc1cccc(-c2ccn(C3CN(Cc4cccc(C(F)F)n4)C3)n2)c1OC [Compound 331] | 0.01 to 10 | 500 to 5000 | 500 to 5000 |
| CNC(=O)c1nnc(NC(=O)C2CC2)cc1Nc1cccc(-c2ccc(C(=O)N(C)Cc3cc(C#N)cnn3)nc2)c1OC [Compound 332] | 0.01 to 10 | 500 to 5000 | 500 to 5000 |
| CNC(=O)c1nnc(NC(=O)C2CC2)cc1Nc1cccc(-c2cn(C3CN(C(C)C)C3)nc2CO)c1OC [Compound 335] | 50 to 500 | 5000 to 100000 | 5000 to 100000 |
| CNC(=O)c1nnc(NC(=O)C2CC2)cc1Nc1cccc(-c2cn(C3CN(C(C)C)C3)nc2C(C)O)c1OC (stereo not drawn) [Compound 336] | 50 to 500 | 5000 to 100000 | 5000 to 100000 |
| CNC(=O)c1nnc(NC(=O)C2CC2)cc1Nc1cccc(-c2cn(C3CN(Cc4cccc(C#N)n4)C3)nc2C(C)O)c1OC (stereo not drawn) [Compound 337] | 0.01 to 10 | 5000 to 100000 | 5000 to 100000 |
| CNC(=O)c1nnc(NC(=O)C2CC2)cc1Nc1cccc(-c2cn(C3CN(C(C)C)C3)nc2C(C)(C)O)c1OC [Compound 338] | 50 to 500 | 500 to 5000 | 5000 to 100000 |
| CNC(=O)c1nnc(NC(=O)C2CC2)cc1Nc1cccc(-c2cn(C3CN(Cc4cccc(C#N)n4)C3)nc2C(C)(C)O)c1OC [Compound 339] | 50 to 500 | 5000 to 100000 | 5000 to 100000 |
